Test [1] addresses T1, KRAS G12D (Homo sapiens, UniProt P01116, G12D).
T1 construct: made in house; host or cells: E. coli, e.g. BL21 (DE3)
In words: HTRF assay, KRAS G12D interaction with SOS1. Type of test: biochemical. The following applies: bins <500 nM / 500 nM to 1000 nM, read-out: Inhibition of KRAS G12D (IC50). (In general: In TR-FRET formats the signal depends on donor and acceptor labels being close together.)

Test [2] deals with T2, KRAS WT (Homo sapiens, UniProt P01116).
T2 construct: made in house; host or cells: E. coli, e.g. BL21 (DE3)
T2 sequence (P01116 1-188 isoform P01116-2): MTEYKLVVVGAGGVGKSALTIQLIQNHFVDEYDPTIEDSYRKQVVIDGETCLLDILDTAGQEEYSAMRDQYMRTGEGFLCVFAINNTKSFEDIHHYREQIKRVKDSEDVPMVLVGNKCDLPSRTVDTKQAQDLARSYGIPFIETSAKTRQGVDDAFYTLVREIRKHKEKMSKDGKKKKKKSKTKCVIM
Put plainly: HTRF assay, wildtype KRAS interaction with SOS1. The note with it: bins <500 nM / 500 nM to 1000 nM, read-out: Inhibition of KRAS WT (IC50). The test is classed as biochemical.

The target of test [3] is T3, KRAS G12V (Homo sapiens, UniProt P01116, G12V).
T3 construct: made in house; host or cells: E. coli, e.g. BL21 (DE3)
T3 sequence (P01116 1-188 isoform P01116-2 G12V): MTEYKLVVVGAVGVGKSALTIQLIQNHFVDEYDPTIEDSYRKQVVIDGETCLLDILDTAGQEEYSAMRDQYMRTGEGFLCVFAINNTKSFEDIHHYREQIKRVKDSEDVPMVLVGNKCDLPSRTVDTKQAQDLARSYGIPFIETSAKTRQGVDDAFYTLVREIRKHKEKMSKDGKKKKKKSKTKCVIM
Put plainly: HTRF assay, KRAS G12V interaction with SOS1. The test is classed as biochemical. The note with it: bins <500 nM / 500 nM to 1000 nM, read-out: Inhibition of KRAS G12V (IC50).

Test [4] has as its target T4, KRAS G12S (Homo sapiens, UniProt P01116, G12S).
T4 construct: made in house; host or cells: E. coli, e.g. BL21 (DE3)
Put plainly: HTRF assay, KRAS G12S interaction with SOS1. Type of test: biochemical. The following applies: bins <500 nM / 500 nM to 1000 nM, read-out: Inhibition of KRAS G12S (IC50).

For test [5], the system named is MiaPaca2 cells. Put plainly: Ras cellular assay, growth of cells with K-Ras G12C mutation. The test is classed as cell-based. The note with it: Homo sapiens, MIA PaCa-2; cell proliferation assay; bins ≤500 nM / >500 nM; read-out: Inhibition of MiaPaca2 Cells (IC50). In outline:
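Anchorage-independent growth: G12C-mutant MIA PaCa-2 plated in soft agar, time-zero plate read the next day when compound was dosed (final DMSO 0.3%). After growth to day 10, MTS-type absorbance at 490/660 nm relative to time zero gave IC50 via four-parameter fitting.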

T4 sequence (P01116 1-188 isoform P01116-2 G12S): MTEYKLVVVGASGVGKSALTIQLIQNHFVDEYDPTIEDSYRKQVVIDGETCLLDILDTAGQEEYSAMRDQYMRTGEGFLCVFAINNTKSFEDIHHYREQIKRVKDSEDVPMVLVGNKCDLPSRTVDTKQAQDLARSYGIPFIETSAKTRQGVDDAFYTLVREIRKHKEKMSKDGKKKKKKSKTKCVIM
T1 sequence (P01116 1-188 isoform P01116-2 G12D): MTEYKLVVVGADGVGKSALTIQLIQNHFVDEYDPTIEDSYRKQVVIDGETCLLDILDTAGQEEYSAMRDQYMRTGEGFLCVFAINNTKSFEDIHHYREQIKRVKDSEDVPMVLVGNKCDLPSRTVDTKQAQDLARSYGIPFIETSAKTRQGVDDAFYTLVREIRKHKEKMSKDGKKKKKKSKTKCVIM

A word on the IC50: it is the midpoint of a concentration-inhibition curve. `Cc1c(C#N)ncn1C(=O)N1CC[C@@]12CCN(c1nc(OC[C@@]34CCCN3C[C@H](F)C4)nc3c(F)c(-c4ccc(F)c5sc(N)c(C#N)c45)c(Cl)cc13)C2` [Compound 121, 1-((4R)-6-(7-(2-amino-3-cyano-7-fluorobenzo[b]thiophen-4-yl)-6-chloro-8-fluoro-2-(((2R,7aS)-2-fluorotetrahydro-1H-pyrrolizin-7a(5H)-yl)methoxy)quinazolin-4-yl)-1,6-diazaspiro[3.4]octane-1-carbonyl)-5-methyl-1H-imidazole-4-carbonitrile]: the IC50 in test [1] was below 500 nM; in test [2], below 500 nM; in test [3], below 500 nM; in test [4], below 500 nM; in test [5] it was at most 500 nM.

Take `Cc1nccn1C(=O)N1CC2(CCN(c3nc(OC[C@@]45CCCN4C[C@H](F)C5)nc4c(F)c(-c5ccc(F)c6sc(N)c(C#N)c56)c(Cl)cc34)C2)C1` [Compound 123, 2-amino-4-(6-chloro-8-fluoro-2-(((2R,7aS)-2-fluorotetrahydro-1H-pyrrolizin-7a(5H)-yl)methoxy)-4-(2-(2-methyl-1H-imidazole-1-carbonyl)-2,6-diazaspiro[3.4]octan-6-yl)quinazolin-7-yl)-7-fluorobenzo[b]thiophene-3-carbonitrile]: the half-inhibitory concentration (IC50) was below 500 nM in test [1]; below 500 nM in test [2]; below 500 nM in test [3]; below 500 nM in test [4]; at most 500 nM in test [5].

For the molecule `C[C@@H]1[C@H](N(C)c2nc(OC[C@@]34CCCN3C[C@H](F)C4)nc3c(F)c(-c4ccc(F)c5sc(N)c(C#N)c45)c(Cl)cc23)CCN1C(=O)n1ccnc1` [Compound 124, 4-(4-(((2R,3R)-1-(1H-imidazole-1-carbonyl)-2-methylpyrrolidin-3-yl)(methyl)amino)-6-chloro-8-fluoro-2-(((2R,7aS)-2-fluorotetrahydro-1H-pyrrolizin-7a(5H)-yl)methoxy)quinazolin-7-yl)-2-amino-7-fluorobenzo[b]thiophene-3-carbonitrile], the IC50 in test [1] is below 500 nM; in test [2], below 500 nM; in test [3], below 500 nM; in test [4], below 500 nM; in test [5] it was at most 500 nM.

For the molecule `C[C@@H]1[C@H](N(C)c2nc(OC[C@@]34CCCN3C[C@H](F)C4)nc3c(F)c(-c4ccc(F)c5sc(N)c(C#N)c45)c(Cl)cc23)CCN1C(=O)n1ccc(C#N)n1` [Compound 126, 1-((2R,3R)-3-((7-(2-amino-3-cyano-7-fluorobenzo[b]thiophen-4-yl)-6-chloro-8-fluoro-2-(((2R,7aS)-2-fluorotetrahydro-1H-pyrrolizin-7a(5H)-yl)methoxy)quinazolin-4-yl)(methyl)amino)-2-methylpyrrolidine-1-carbonyl)-1H-pyrazole-3-carbonitrile], the IC50 in test [1] is below 500 nM; in test [2] it was below 500 nM; in test [3], below 500 nM; in test [4], below 500 nM; in test [5], at most 500 nM.

For `Cc1nc(C)n(C(=O)N2CC[C@@H](N(C)c3nc(OC[C@@]45CCCN4C[C@H](F)C5)nc4c(F)c(-c5ccc(F)c6sc(N)c(C#N)c56)c(Cl)cc34)[C@H]2C)c1C` [Compound 127, 2-amino-4-(6-chloro-8-fluoro-2-(((2R,7aS)-2-fluorotetrahydro-1H-pyrrolizin-7a(5H)-yl)methoxy)-4-(methyl((2R,3R)-2-methyl-1-(2,4,5-trimethyl-1H-imidazole-1-carbonyl)pyrrolidin-3-yl)amino)quinazolin-7-yl)-7-fluorobenzo[b]thiophene-3-carbonitrile], the IC50 was below 500 nM in test [1]; below 500 nM in test [2]; below 500 nM in test [3]; below 500 nM in test [4]; at most 500 nM in test [5].

Take `Cc1cn(C(=O)N2CC(F)(CN(C)c3nc(OC[C@@]45CCCN4C[C@H](F)C5)nc4c(F)c(-c5ccc(F)c6sc(N)c(C#N)c56)c(Cl)cc34)C2)cn1` [Compound 128, 2-amino-4-(6-chloro-8-fluoro-4-(((3-fluoro-1-(4-methyl-1H-imidazole-1-carbonyl)azetidin-3-yl)methyl)(methyl)amino)-2-(((2R,7aS)-2-fluorotetrahydro-1H-pyrrolizin-7a(5H)-yl)methoxy)quinazolin-7-yl)-7-fluorobenzo[b]thiophene-3-carbonitrile]: the IC50 was below 500 nM in test [1]; below 500 nM in test [2]; below 500 nM in test [3]; below 500 nM in test [4]; at most 500 nM in test [5].

Turning to `CCN(c1nc(OC[C@@]23CCCN2C[C@H](F)C3)nc2c(F)c(-c3ccc(F)c4sc(N)c(C#N)c34)c(Cl)cc12)[C@@H]1CCN(C(=O)n2cc(Cl)nc2C)[C@@H]1C` [Compound 130, 2-amino-4-(6-chloro-4-(((2R,3R)-1-(4-chloro-2-methyl-1H-imidazole-1-carbonyl)-2-methylpyrrolidin-3-yl)(ethyl)amino)-8-fluoro-2-(((2R,7aS)-2-fluorotetrahydro-1H-pyrrolizin-7a(5H)-yl)methoxy)quinazolin-7-yl)-7-fluorobenzo[b]thiophene-3-carbonitrile], the half-inhibitory concentration (IC50) was below 500 nM in test [1]; below 500 nM in test [2]; below 500 nM in test [3]; below 500 nM in test [4]; at most 500 nM in test [5].

Turning to `Cc1ncn(C(=O)N2C[C@]3(CCCCN(c4nc(OC[C@@]56CCCN5C[C@H](F)C6)nc5c(F)c(-c6ccc(F)c7sc(N)c(C#N)c67)c(Cl)cc45)C3)[C@H]2C)c1C` [Compound 131, 2-amino-4-(6-chloro-4-((1R,4R)-2-(4,5-dimethyl-1H-imidazole-1-carbonyl)-1-methyl-2,6-diazaspiro[3.6]decan-6-yl)-8-fluoro-2-(((2R,7aS)-2-fluorotetrahydro-1H-pyrrolizin-7a(5H)-yl)methoxy)quinazolin-7-yl)-7-fluorobenzo[b]thiophene-3-carbonitrile], the IC50 is below 500 nM in test [1]; below 500 nM in test [2]; below 500 nM in test [3]; below 500 nM in test [4]; at most 500 nM in test [5].

Take `CC[C@@H]1[C@H](N(C)c2nc(OC[C@@]34CCCN3C[C@H](F)C4)nc3c(F)c(-c4ccc(F)c5sc(N)c(C#N)c45)c(Cl)cc23)CCN1C(=O)n1cnc(F)n1` [Compound 134, 2-amino-4-(6-chloro-4-(((2R,3R)-2-ethyl-1-(3-fluoro-1H-1,2,4-triazole-1-carbonyl)pyrrolidin-3-yl)(methyl)amino)-8-fluoro-2-(((2R,7aS)-2-fluorotetrahydro-1H-pyrrolizin-7a(5H)-yl)methoxy)quinazolin-7-yl)-7-fluorobenzo[b]thiophene-3-carbonitrile]: the IC50 in test [1] was below 500 nM; in test [2] it was below 500 nM; in test [3] it was below 500 nM; in test [4], below 500 nM; in test [5] it was at most 500 nM.

`C[C@@H]1[C@H](N(C)c2nc(OC[C@@]34CCCN3C[C@H](F)C4)nc3c(F)c(-c4ccc(F)c5sc(N)c(C#N)c45)c(Cl)cc23)CCN1C(=O)n1cnc(C2CC2)c1` [Compound 135, 2-amino-4-(6-chloro-4-(((2R,3R)-1-(4-cyclopropyl-1H-imidazole-1-carbonyl)-2-methylpyrrolidin-3-yl)(methyl)amino)-8-fluoro-2-(((2R,7aS)-2-fluorotetrahydro-1H-pyrrolizin-7a(5H)-yl)methoxy)quinazolin-7-yl)-7-fluorobenzo[b]thiophene-3-carbonitrile]: the 50% inhibitory concentration (IC50) in test [1] was below 500 nM; in test [2] it was below 500 nM; in test [3], below 500 nM; in test [4] it was below 500 nM; in test [5], at most 500 nM.

For `CCN(c1nc(OC[C@@]23CCCN2C[C@H](F)C3)nc2c(F)c(-c3ccc(F)c4sc(N)c(C#N)c34)c(Cl)cc12)[C@@H]1CCN(C(=O)n2ccc(C#N)n2)[C@@H]1C` [Compound 136, 1-((2R,3R)-3-((7-(2-amino-3-cyano-7-fluorobenzo[b]thiophen-4-yl)-6-chloro-8-fluoro-2-(((2R,7aS)-2-fluorotetrahydro-1H-pyrrolizin-7a(5H)-yl)methoxy)quinazolin-4-yl)(ethyl)amino)-2-methylpyrrolidine-1-carbonyl)-1H-pyrazole-3-carbonitrile], the IC50 in test [1] was below 500 nM; in test [2], below 500 nM; in test [3], below 500 nM; in test [4], below 500 nM; in test [5], at most 500 nM.

Consider `CCN(c1nc(OC[C@@]23CCCN2C[C@H](F)C3)nc2c(F)c(-c3ccc(F)c4sc(N)c(C#N)c34)c(Cl)cc12)[C@@H]1CCN(C(=O)n2cc(C)nc2Cl)[C@@H]1C` [Compound 137, 2-amino-4-(6-chloro-4-(((2R,3R)-1-(2-chloro-4-methyl-1H-imidazole-1-carbonyl)-2-methylpyrrolidin-3-yl)(ethyl)amino)-8-fluoro-2-(((2R,7aS)-2-fluorotetrahydro-1H-pyrrolizin-7a(5H)-yl)methoxy)quinazolin-7-yl)-7-fluorobenzo[b]thiophene-3-carbonitrile], for which the IC50 in test [1] is below 500 nM; in test [2], below 500 nM; in test [3], below 500 nM; in test [4], below 500 nM; in test [5] it was at most 500 nM.

The record behind these values is patent US20260217735A1, “HETEROCYCLES AND USES THEREOF” (Kumquat Biosciences Inc., priority 2023, published 2026).
